ChEMBL document CHEMBL5579821, “Non-kinase off-target inhibitory activities of clinically-relevant kinase inhibitors” (Eur J Med Chem, 2024)
One block for each compound: values may come before it.

Experiments:
Adenosine receptor A3 = target: T1, Adenosine receptor A3 (Homo sapiens, UniProt P0DMS8)
T1 sequence (P0DMS8 whole entry): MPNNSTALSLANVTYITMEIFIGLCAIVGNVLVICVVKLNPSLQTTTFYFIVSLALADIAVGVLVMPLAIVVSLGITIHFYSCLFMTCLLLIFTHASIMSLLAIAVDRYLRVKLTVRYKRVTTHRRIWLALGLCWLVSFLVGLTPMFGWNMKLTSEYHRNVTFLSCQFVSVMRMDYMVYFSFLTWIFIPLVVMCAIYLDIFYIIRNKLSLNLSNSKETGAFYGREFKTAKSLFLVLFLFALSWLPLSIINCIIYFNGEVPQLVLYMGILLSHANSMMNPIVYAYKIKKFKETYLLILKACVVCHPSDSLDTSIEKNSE

clinical [1] = conditions: human, plasma, 5 mg
[2] = target: T2, Aldo-keto reductase family 1 member C3 (Homo sapiens, UniProt P42330)
T2 sequence (P42330 whole entry): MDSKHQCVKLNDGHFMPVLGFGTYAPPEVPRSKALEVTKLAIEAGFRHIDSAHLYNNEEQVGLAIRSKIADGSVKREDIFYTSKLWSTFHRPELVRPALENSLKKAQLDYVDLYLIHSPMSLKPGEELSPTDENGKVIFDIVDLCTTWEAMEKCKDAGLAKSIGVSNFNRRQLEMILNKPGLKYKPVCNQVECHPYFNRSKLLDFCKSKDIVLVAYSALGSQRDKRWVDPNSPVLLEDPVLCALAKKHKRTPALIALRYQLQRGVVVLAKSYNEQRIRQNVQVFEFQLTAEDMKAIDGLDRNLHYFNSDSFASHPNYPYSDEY

clinical [3] = conditions: human, 300 mg
clinical [4] = conditions: human, in vivo, po, 50 mg
cells = conditions: Homo sapiens, NIH3T3
clinical [5] = conditions: human, plasma
[6] = target: Proto-oncogene tyrosine-protein kinase receptor Ret (Homo sapiens, UniProt P07949)
Chain of Proto-oncogene tyrosine-protein kinase receptor Ret (P07949 whole entry): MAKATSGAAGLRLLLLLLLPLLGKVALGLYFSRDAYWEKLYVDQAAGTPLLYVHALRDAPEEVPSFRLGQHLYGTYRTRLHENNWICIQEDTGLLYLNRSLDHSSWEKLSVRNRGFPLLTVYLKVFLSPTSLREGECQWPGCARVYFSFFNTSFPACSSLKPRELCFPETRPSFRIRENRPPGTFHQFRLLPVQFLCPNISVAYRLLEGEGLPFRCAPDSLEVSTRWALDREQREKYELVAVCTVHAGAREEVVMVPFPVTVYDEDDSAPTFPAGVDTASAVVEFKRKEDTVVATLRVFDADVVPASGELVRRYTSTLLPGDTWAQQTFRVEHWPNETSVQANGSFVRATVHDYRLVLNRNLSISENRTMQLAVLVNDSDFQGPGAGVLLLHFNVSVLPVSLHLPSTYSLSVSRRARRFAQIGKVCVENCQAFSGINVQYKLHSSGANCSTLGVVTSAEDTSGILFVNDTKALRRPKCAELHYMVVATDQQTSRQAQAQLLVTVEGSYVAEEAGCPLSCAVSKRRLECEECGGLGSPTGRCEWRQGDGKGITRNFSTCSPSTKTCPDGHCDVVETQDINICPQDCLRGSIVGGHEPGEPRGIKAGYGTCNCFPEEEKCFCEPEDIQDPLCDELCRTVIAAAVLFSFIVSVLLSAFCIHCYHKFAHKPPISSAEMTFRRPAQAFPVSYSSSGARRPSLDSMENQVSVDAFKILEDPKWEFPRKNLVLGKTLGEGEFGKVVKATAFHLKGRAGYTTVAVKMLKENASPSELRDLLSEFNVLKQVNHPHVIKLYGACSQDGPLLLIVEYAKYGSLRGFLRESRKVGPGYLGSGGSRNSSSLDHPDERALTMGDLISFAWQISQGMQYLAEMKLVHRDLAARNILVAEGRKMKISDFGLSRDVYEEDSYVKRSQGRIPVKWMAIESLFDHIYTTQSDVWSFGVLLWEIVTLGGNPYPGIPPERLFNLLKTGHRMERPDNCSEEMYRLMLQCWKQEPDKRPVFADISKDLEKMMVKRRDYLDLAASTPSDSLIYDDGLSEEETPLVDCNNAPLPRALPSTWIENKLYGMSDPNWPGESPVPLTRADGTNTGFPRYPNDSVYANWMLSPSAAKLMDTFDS

Compound: COc1cc(Nc2ncc(F)c(Nc3ccc4c(n3)NC(=O)C(C)(C)O4)n2)cc(OC)c1OC
IC50 (Adenosine receptor A3): 18 nM

Compound: CNC(=O)c1ccccc1Sc1ccc2c(/C=C/c3ccccn3)n[nH]c2c1 [AXITINIB]
Cmax (clinical [1]): 27.8 ng/mL

Compound: CO[C@@H]1[C@H](N(C)C(=O)c2ccccc2)C[C@H]2O[C@]1(C)n1c3ccccc3c3c4c(c5c6ccccc6n2c5c31)C(=O)NC4 [MIDOSTAURIN]
Cmax at 192 h (clinical [4]): 1600 ng/mL

Compound: Cc1cn(-c2cc(NC(=O)c3ccc(C)c(Nc4nccc(-c5cccnc5)n4)c3)cc(C(F)(F)F)c2)cn1 [NILOTINIB]
IC50 (cells): 374 nM
Cmax (clinical [5]): 1640 ng/mL

Compound: CCCS(=O)(=O)Nc1ccc(F)c(C(=O)c2c[nH]c3ncc(-c4ccc(Cl)cc4)cc23)c1F [VEMURAFENIB]
IC50 [6]: 4.8 nM

Further lines, results first:

Kd [2]: 69 nM
Compound: CCc1cnn2c(NCc3ccc[n+]([O-])c3)cc(N3CCCC[C@H]3CCO)nc12 [DINACICLIB]

Cmax (clinical [3]): 971 ng/mL
Compound: Cc1cnc(Nc2ccc(OCCN3CCCC3)cc2)nc1Nc1cccc(S(=O)(=O)NC(C)(C)C)c1 [FEDRATINIB]
